Laboratory results reported in patent US7884082B2, “Combined therapeutical treatment of hyperproliferative diseases” (Aventis Pharma SA, priority 1995, dated 2011).

Legend:
[1] = test system: various tumour cell lines; settings: various tumour cell lines in culture; cited from earlier work
H460 cells [2] = experiment: Sensitivity of transfected H460 cells to taxotere, cisplatin or camptothecin (colony count, Example 2); format: cell-based, human; settings: for apoptotic effect induced by the GAP (170-702) construction on addition of the product: added to culture medium of human tumour cells transfected with GAP(170-702), at concentrations without effect on cell viability; for apoptotic effect induced by the transfer of the Grb3-3 gene on addition of the product: added to culture medium of human tumour cells transfected with Grb3-3, at concentrations without effect on cell viability; for effect of the product alone on cell viability: concentrations used in the combination, human tumour cells
Description: H460 cells transfected as described in Example 1 are subjected during selection by geneticin to a treatment for several days at different concentrations of taxotere, of cisplatin or of camptothecin. The H460/Neo^R cells and which are resistant to the chemotherapeutic agents are quantified as described in Example 1. The sensitivity to taxotere (A), to cisplatin (B) or to camptothecin (C) of the H460 cells transfected with pSV2-Neo (●), pSV2-Neo+pSV2-GAP[170-702] (▴) or pSV2-Neo+pSV2-Grb3-3 (▾) is depicted relative to cells transfected identically but in the absence of treatment with the chemotherapeutic agents. The results of an experiment which is representative of quantification of the number of colony after the different treatments mentioned are summarized in FIG. 2.

H460 cells [3] = experiment: Sensitivity of isolated H460 clones transfected with pcDNA3 or pcDNA3-p53WT to taxotere (Example 3); format: cell-based, human
Description: H460 cells are transfected with cDNA coding for the wild-type p53 protein (p53^WT) placed in the plasmid pcDNA3 under the control of the CMV promoter. Plasmid pcDNA3 also contains the Neo gene placed under the control of the SV40 promoter. Cells transfected with pcDNA3 or pcDNA3-p53^WT are selected and isolated as described in Example 1. In the cells transfected with pcDNA3-p53^WT and which are resistant to geneticin, the presence of p53 is verified by western blotting using specific antibodies. FIG. 3 summarizes the results of a representative experiment in which are depicted, on the one hand the number of colonies obtained after pcDNA3 or pcDNA3-p53^WT transfection (A), and on the other hand the sensitivity of the clones isolated to a treatment with taxotere (B).

| SMILES | induction of apoptosis [1] | apoptotic effect induced by the GAP (170-702) construction on addition of the product (H460 cells [2]) | apoptotic effect induced by the transfer of the Grb3-3 gene on addition of the product (H460 cells [2]) | effect of the product alone on cell viability (H460 cells [2]) | effect of taxotere on H460 clones expressing wild-type p53 (H460 cells [3]; H460 clones resistant to the effect of p53, increasing doses of taxotere) | effect of taxotere on cells that do not express wild-type p53 (H460 cells [3]; same concentrations as those killing p53-expressing clones) |
| --- | --- | --- | --- | --- | --- | --- |
| CC(=O)O[C@H]1C(=O)[C@@]2(C)[C@H]([C@H](OC(=O)c3ccccc3)[C@]3(O)C[C@H](OC(=O)[C@H](O)[C@@H](NC(=O)c4ccccc4)c4ccccc4)C(C)=C1C3(C)C)[C@]1(OC(C)=O)CO[C@@H]1C[C@@H]2O [Taxol, 4,10β-diacetoxy-2α-benzoyloxy-5β,20-epoxy-1β,7β-dihydroxy-9-oxo-11-taxen-13α-yl (2R,3S)-3′-benzoylamino-3′-phenyl-2′-hydroxypropionate] | induces apoptosis | – | – | – | – | – |
| CC[C@@]1(O)C(=O)OCc2c1cc1n(c2=O)Cc2cc3ccccc3nc2-1 [camptothecin] | – | very greatly increased | very greatly increased | without effect on cell viability | – | – |
| N.N.[Cl][Pt][Cl] [cisplatin] | – | very greatly increased | very greatly increased | without effect on cell viability | – | – |
| CC(=O)O[C@@]12CO[C@@H]1C[C@H](O)[C@@]1(C)C(=O)[C@H](O)C3=C(C)[C@@H](OC(=O)[C@H](O)[C@@H](NC(=O)OC(C)(C)C)c4ccccc4)C[C@@](O)([C@@H](OC(=O)c4ccccc4)[C@H]21)C3(C)C [taxotere, 4-acetoxy-2α-benzoyloxy-5β,20-epoxy-1β,7β,10β-trihydroxy-9-oxo-11-taxen-13α-yl (2R,3S)-3′-t-butoxycarbonylamino-3′-phenyl-2′-hydroxypropionate] | – | very greatly increased | very greatly increased | without effect on cell viability | cells die | completely ineffective |
